Results published in paper PMC12419922, “Myristoylated Cathelicidin-DM Fused With ANG1-7: A Novel Self-Assembling Antimicrobial Peptide for the Treatment and Mechanism of Diabetic Infected Wounds” (Journal of Diabetes Research, 2025).
Where no end group is shown, it is not given here. The star is where a group is joined. Myristoyl = CCCCCCCCCCCCCC(=O)*

Tests used:
[1] = test system: HUVECs; assay: Scratch wound healing assay; assay type: cell-based, human; details: HG + LPS, 20 μg/mL, n = 3
Method: In a 6-well plate, HUVECs (2 × 10^5 cells/well) were seeded. The cells were starved in serum-free medium for 12 h, and then, a scratch was made vertically using a 200-μL pipette tip. […]

[2] = test system: S. aureus (ATCC 25923) infected diabetic wound; assay: Diabetic mouse S. aureus-infected full-thickness skin wound model; details: for wound healing rate: 200 μL subcutaneously for 3 days, n = 4
Method: BALB/c male mice are from the Experimental Animal Center of Air Force Military Medical University. One group was fed a normal diet, and the other five groups were fed a high-fat diet for 4 weeks and then injected with 35 mg/kg streptozotocin (STZ, 35 mg/kg, Sigma) intraperitoneally for 3 days. […] After intraperitoneal injection of pentobarbital sodium (1%, […]), the dorsal hair of each animal was shaved off, and a circular full-thickness skin wound was created on the back using a 10-mm sterile mouse punch. S. aureus (ATCC 25923) was used to infect the wound site of mice, and a full-thickness wound infection model of mice was established. S. aureus was first resuscitated by operation in a biological ultra-clean table. A single colony was picked and incubated in LB medium at 37°C and 200 rpm. The concentration of the above S. aureus solution was adjusted to 1 × 10^8 CFU/mL to infect the wound of mice. Then, 24 h after S. aureus infection, three drugs, DM (20 μg/mL), ANG1-7 (20 μg/mL), and MYR-DM-ANG1-7 (20 μg/mL), were dissolved in PBS buffer, and 200 μL was injected subcutaneously for 3 days. After drug injection, the wound pus was diluted and coated with plate culture to observe the colony situation. The gross specimen imaging system (GF-7A, China) was used to record the wounds of mice on the same day and every other day after the formation of the wounds. The rubber ring with adhesive backing was used to fix the wound and prevent it from shrinking. ImageJ analysis software (NIH, Bethesda, MD, United States) was used to calculate and analyze the wound area. After 0, 3, 7, 10, and 14 days, the size of the infected wound was evaluated by rubber ring. The wound closure was measured as follows: the wound healing rate (%) = [W0 − Wn]/W0 × 100%, where W0 and Wn represent the wound area on the 0th and nth days, respectively (n = 4).
On the 14th day, the skin tissue was fixed in 4% paraformaldehyde solution, dehydrated, embedded in paraffin, sliced, and stained with hematoxylin–eosin (HE) and Masson. Skin tissue sections on Day 7 were immunofluorescently stained using rabbit anti-mouse CD31 (Cell Signaling Technology) and α-SMA (Cell Signaling Technology), and all stained sections were observed under the slide scanner (Aperio AT 2; Leica Biosystems, Germany).

[3] = test system: HUVECs; assay: Tube formation (angiogenesis) on Matrigel; assay type: cell-based, human; details: 9 h, n = 3
Method: The formation of vascular structure was observed by matrix glue experiment, and the angiogenesis ability was evaluated in Matrigel stent (Corning, New York). After treatment in each group, 300 μL (2 × 10^5 cells/mL) HUVECs were digested and inoculated into a 24-well plate containing Matrigel scaffold. After 9 h, the formation image of the tube was photographed.

[4] = test system: Human keratinocyte cells (HaCaTs); details: 50 μg/mL (highest concentration), 24 h, CCK8
Method: (§1) Human keratinocyte cells (HaCaTs) and human skin fibroblasts (HSFs) were seeded in 96-well plates at a density of 5000 cells per well. After overnight culture, different concentrations of AMP MYR-DM-ANG1-7 were added to the cells, and then, the cells were cultured for 24 h. Untreated cells were supplemented with fresh culture medium as the control group. Subsequently, 10% by volume of CCK8 solution (5 mg/mL) was added to each well.
(§2) After incubation for 1 h, the absorbance in each well was measured at 450 nm using an M200 full-band microplate reader (Infinite M200 PRO, Switzerland). Finally, the cell viability was calculated relative to the control groups.

[5] = test system: human skin fibroblasts (HSFs); details: 1.56 μg/mL (lowest concentration), 24 h, CCK8
Method: as §1, §2

[6] = test system: HUVECs; assay: ELISA of IL-6 and TNF-α in culture supernatant; assay type: cell-based, human; details: HG + LPS 24 h
Method: The HUVECs were seeded at 1 × 10^4 cells/well and cultured in 96-well plates. Following the indicated treatments, the levels of IL-6 and TNF-α in culture media were analyzed using ELISA according to the method of the kit. The experiments were repeated three times.

[7] = TEM of self-assembled structures; assay type: physicochemical; details: 32 μg/mL, deionized water, 1.5% PTA negative stain
Method: The self-assembly morphology of peptide amphiphiles in water was observed using TEM. Each sample was mounted on a 300-mesh copper-coated carbon grid and then negatively stained with a 1.5% phosphotungstic acid solution (1.5% PTA). Before imaging, all samples were air-dried for approximately 10 min. Finally, the samples were characterized under an acceleration voltage of 80 kV.

[8] = test system: HUVECs; assay: NO secretion, Griess reaction; assay type: cell-based, human; details: HG + LPS (HG + LPS 0.5 times the original level), n = 3
Method: NO levels were determined using the Griess reaction. Briefly, 100 μL of cell culture supernatant was mixed with an equal volume of Griess reagent and incubated at room temperature in the dark for 30 min. The absorbance of the reaction mixture was measured at 540 nm using a microplate reader. Sodium nitrite (NaNO2) was used as a standard to generate a calibration curve, and the NO concentration in the samples was calculated accordingly. All experiments were independently performed in triplicate to ensure data reliability and reproducibility.

[9] = test system: HUVECs; assay: Mitochondrial membrane potential, JC-1; assay type: cell-based, human; details: HG + LPS, 20 μg/mL, p < 0.0001
Method: JC-1 is a widely used and ideal fluorescent probe for detecting MMP. When the MMP is high, JC-1 accumulates in the matrix of the mitochondria, forming J-aggregates that emit red fluorescence. When the MMP is low, JC-1 cannot accumulate in the mitochondrial matrix, remaining as a monomer that emits green fluorescence. HUVECs were cultured in well plates containing DMEM at a density of 1 × 10^6 cells/well. Following the indicated treatments, the slides were washed three times with PBS and the cells were incubated with 1 mg/l JC-1 at 37°C for 30 min in the incubator, washed briefly three times with PBS. The fluorescence was measured over the entire field of vision using a fluorescent microscope connected to an inverted fluorescence microscope (ThermoFish EVOS, United States). The experiment was repeated three times.

## Myristoyl-SSRRKPCKGWLCKLKLRGGYTLIGSATNLNRPTYVRAGGGDRVYIHP (cysteines drawn unpaired) [MYR-DM-ANG1-7]
[1]; after 12 h
  wound healing rate (scratch assay): 61.6%
[1]; at 48 h
  healing area (scratch assay): 100%
[2]; 7th day, 20 μg/mL in PBS
  wound healing rate: 72.77%
[2]; 10th day (diabetic control 40.26%), 20 μg/mL
  wound healing rate: 85.22%
[2]; 14th day (diabetic control 52.34%), 20 μg/mL
  wound healing rate: 95.66%
[2]; 14th day, H&E
  pathological changes in the liver and kidneys: no evidence of organ damage or pathological changes
[2]; Day 7, compared with the diabetes infection group, p < 0.05
  blood vessels, CD31 immunofluorescence: more blood vessels
[2]; Day 14, compared with the diabetes infection group
  epidermis of wound tissue (HE staining): became thinner
[2]; Day 14, p < 0.0001
  collagen deposition area (Masson staining): became larger
[2]; seventh day, vs the diabetes infection group, p < 0.01
  fluorescence intensity of α-SMA: significantly higher
[2]; wound pus plated on LB agar after 24 h of treatment, p < 0.0001
  number of bacteria in the wound: decreased
[3]; HG + LPS (HG + LPS group 0.3 times)
  main connections of formed blood vessels: 1.9 times
[3]; HG + LPS (HG + LPS group 0.4 times)
  length of formed blood vessels: 1.7 times
[4]
  cell survival rate, HaCaT: 92.4%
[5]
  cell survival rate, HSF: 95.16%
[6]
  TNF-α level: alleviate the decrease
[7]
  particle size of micelles: 22.38 ± 1.63 nm
[8]
  NO secretion in cell supernatant, increases to: 1.63 times
[9]
  mitochondrial membrane potential (JC-1): increase
